Measured values reported in patent publication US10526317B2, “Benzocyanine compounds” (PIERCE BIOTECHNOLOGY, INC., priority 2012, dated 2020).
“Also recorded” adds a separate entry of the source. Blank lines part the entries; values can stand above or below the compound they belong to.

How the values were obtained:
[1] = Absorption/emission profiles and spectral properties of the dyes; format: physicochemical
Procedure: The following properties of 679 Compound 1-NHS were compared with commercially available dyes.
Emission/excitation profiles for inventive and commercial compounds was determined by reconstituting the compounds in DMF at 10 mg/ml and then diluting in PBS buffer pH 7.2 to 10 μg/ml. Absorbance spectra were collected on Cary UV spectrophotometer and emission spectra were collected on Tecan Safire, shown in FIG. 1 where solid lines represent absorbance spectra and dashed lines represent emission spectra, for DyLight 680-NHS (purple), DyLight 680B-NHS (blue), 679 Compound 1-NHS (red), and Company B Compound-NHS (black). The maximum absorbance and emission for each compound is shown below.
The following properties of 679 Compound 1-NHS, 679 Compound 4/4-NHS (V08-15173), and 679 Compound 4/4-NHS (V10-04152) were compared with commercially available dyes.

CEA = test system: CEA; parameters: species or system nu/nu mice; conditions: mouse; for post-experiment surgical exposure (in words): in vivo
Procedure: The inventive compounds are used for in vivo imaging as described in J. Gastrointest Surg (2008) 12:1938-1950. Briefly, human pancreatic cell lines are maintained in media supplemented with penicillin/streptomycin at 37° C. with 5% CO2. Mouse anti-CEA antibody and Control Mouse IgG (in PBS with 0.20% sodium azide) are conjugated to V08-15173. The dye is reconstituted at 10 mg/ml in DMF and then added to the antibody at a 10 molar excess. The reaction is carried out for one hour at room temperature. The samples are then dialyzed against 3×2 L of PBS. The cell lines are plated in 96-well plates at 5×10^4 cells per well. After 48 hours culture in appropriate media, the cells are incubated with 1 μg of V08-15173 labeled anti-CEA antibody or V08-15173-labeled control mouse IgG for four hours at 37° C. The cells are then washed three times with PBS and then imaged with an inverted Nikon De-485 microscope and Spot camera RD.
Surgical procedures and intravital imaging are performed with the animals anesthesized by intramuscular injection of 0.02 ml of 50% ketamine, 38% xylazine and 12 acepromazine maleate. Human pancreatic and colorectal cancer cell lines are harvested by trypsinization and washed twice with serum free medium and washed twice with serum-free medium. Cells (1×10^6 in 100 μl of serum-free media) are injected subcutaneously within 30 minutes of harvesting over the right flank in female nu/nu mice between 4-6 weeks of age. Subcutaneous tumors are allowed to grow for 7-14 days until they reached diameter of 1-2 mm prior to the delivery of conjugated antibody. For ASPC-1 implants, the cells are harvested by trpsinization and washed 3× in serum-free media. The cells are resuspended in serum-free media. The cells are resuspended in serum-free media at 5×10^6/ml. A volume of 200 μl of the cell suspension is then injected directly into the peritoneal cavity within 30 minutes of harvesting.
For antibody delivery, one to two weeks after subcutaneous, orthotopic, or intraperitoneal tumor implantation, animals are given intravenous (i.v.) injection of either conjugated anti-CEA or conjugated control IgG antibody diluted in PBS to a final volume of 100 μl. All i.v. injections are done via the tail vein. For the dose-response experiment, the antibody dose is 75 μg. For the in vivo time course, the animals are anesthesized and imaged at 30 min, 1, 2, 6, 24 hours and 8 and 15 days after systemic antibody delivery.
The inventive compounds are used for in vivo imaging as described in J. Gastrointest Surg (2008) 12:1938-1950. Briefly, human pancreatic cell lines are maintained in media supplemented with penicillin/streptomycin at 37° C. with 5% CO2. Mouse anti-CEA antibody and Control Mouse IgG (in PBS with 0.20% sodium azide) are conjugated to 779 Compound 1. […]

lamin A = experiment: Immunofluorescence detection of lamin A in U2OS cells, dye-GAM secondary (FIG. 29A-C and repeat); format: cell-based, human; conditions: for Mean Total Intensity, Negative control: no primary antibody
Procedure: In the indicated experiments, the inventive compounds and commercial dye were evaluated for immunofluorescence in a cell based assay using the following protocol. Frozen U20S cell plates which were stored at −80° C. were thawed for 45 minutes at 50° C. Storage buffer (PBS) was removed and the cells were permeabilized for 15 minutes with 0.1% Triton-X100 in 1×PBS buffer (100 μl/well). The cell plate was blocked for 60 minutes in 2% BSA/PBS-0.1% Triton-X100. Primary antibody, either rat anti-Grp94 (5 μg/ml), mouse anti-lamin A (10 μg/ml), or rabbit anti-lamin B1 (10 μg/ml), diluted in 2% BSA/PBS-0.1% Triton-X100 was added to the plate and incubated for 1 hour at room temperature. Control wells contained only 2% BSA/PBS-0.1% Triton-X100 blocker. After incubation, the antibody solution was removed from the plate and the plate was washed three times with 100 μl/well of PBS-0.5% Tween-20 and one time with 100 μl/well PBS. GARat, GAM, or GAR secondary antibodies labeled with various molar excess of the inventive or commercial compound were diluted to 4 μg/ml in PBS and incubated for 1 hour at room temperature. The plates were washed three times with 100 μl/well of PBST and once with 100 μl/well PBS, and Hoechst (diluted to 0.1 μg/ml in PBS) was added to each well (100 μl/well). The plates were scanned on ArrayScan Plate Reader or ToxInsight Instrument.
Quantitative analysis of a repeat experiment of FIG. 29A-C are shown below.

[2] = Micro conjugation (labeling of ≥0.1 mg monoclonal antibody): D/P, protein recovery, free dye; conditions: 15 μg dye or commercial kit, mouse MAb
Procedure: Another experiment set used inventive and commercial compounds, each as the NHS ester, in a micro conjugation (labeling of≥0.1 mg antibody). […] The antibodies were labeled and purified as described above.

[3] = first property table of Example 6
[4] = second property table of Example 6

Compound: COCC[N+]1=C(/C=C/C=C/C=C2/N(CCCCCC(=O)O)c3ccc4c(S(=O)(=O)[O-])cc(S(=O)(=O)[O-])cc4c3C2(C)C)C(C)(CCCS(=O)(=O)[O-])c2c1ccc1c(S(=O)(=O)[O-])cc(S(=O)(=O)[O-])cc21.[Na+].[Na+].[Na+].[Na+] (single isomer, unassigned) [679 Compound 1/1 (Isomer 1), 2-{(1E,3E)-5-[3-(5-Carboxypentyl)-1,1-dimethyl-6,8-disulfo-1,3-dihydro-benzo[e]indol-(2E)-ylidene]-penta-1,3-dienyl}-3-(2-methoxy-ethyl)-1-methyl-6,8-disulfo-1-(3-sulfopropyl)-1H-benzo[e]indolium]
- UV-vis (PBS): λmax ([1]; PBS): 679 nm
- λem ([1]; PBS): 698 nm

Compound: COCC[N+]1=C(/C=C/C=C/C=C2/N(CCCCCC(=O)O)c3ccc4c(S(=O)(=O)[O-])cc(S(=O)(=O)[O-])cc4c3C2(C)C)C(C)(CCCS(=O)(=O)[O-])c2c1ccc1c(S(=O)(=O)[O-])cc(S(=O)(=O)[O-])cc21.[Na+].[Na+].[Na+].[Na+] (single isomer, unassigned) [679 Compound 1/1 (Isomer 2), 2-{(1E,3E)-5-[3-(5-Carboxypentyl)-1,1-dimethyl-6,8-disulfo-1,3-dihydro-benzo[e]indol-(2E)-ylidene]-penta-1,3-dienyl}-3-(2-methoxy-ethyl)-1-methyl-6,8-disulfo-1-(3-sulfopropyl)-1H-benzo[e]indolium]
- λem ([1]; PBS): 698 nm

- Em (nm) [1, 3]: 698 nm
- Ex (nm) [1, 3]: 679 nm
- Em (nm) [1, 4]: 698 nm
- Ex (nm) [1, 4]: 679 nm
- ε (M^−1cm^−1) (theoretical) ([1]; theoretical): 180,000 M^−1cm^−1
- ε (M−1cm−1) (theoretical) ([1]; theoretical): 180,000 M−1cm−1
Compound: COCC[N+]1=C(/C=C/C=C/C=C2/N(CCCCCC(=O)ON3C(=O)CCC3=O)c3ccc4c(S(=O)(=O)[O-])cc(S(=O)(=O)O)cc4c3C2(C)C)C(C)(CCCS(=O)(=O)O)c2c1ccc1c(S(=O)(=O)O)cc(S(=O)(=O)O)cc21 (stereo not drawn) [679 Compound 1-NHS]

Compound: COCC[N+]1=C(/C=C/C=C/C=C/C=C2/N(CCCCCC(=O)O)c3ccc4c(S(=O)(=O)[O-])cc(S(=O)(=O)O)cc4c3C2(C)C)C(C)(CCCS(=O)(=O)O)c2c1ccc1c(S(=O)(=O)O)cc(S(=O)(=O)O)cc21 (stereo not drawn) [779 Compound 1]
- Ex vivo analysis of the vital organs (in words) (CEA): presence of dye predominantly in the liver with some signal detected in the spleen intestines and lungs
- post-experiment surgical exposure (in words) (CEA): accumulation of dye in the liver, bladder, and a region of inflammation in the subcutaneous tissue

Compound: COCCOCCOCCOCC[N+]1=C(/C=C/C=C/C=C2/N(CCOCCOCCOCCOCCC(=O)ON3C(=O)CCC3=O)c3ccc4c(S(=O)(=O)[O-])cc(S(=O)(=O)O)cc4c3C2(C)CCOCCOCCOCCOC)C(C)(CCOCCOCCOCCOC)c2c1ccc1c(S(=O)(=O)O)cc(S(=O)(=O)O)cc21 (stereo not drawn) [Compound V08-15173]
- S/B (lamin A; 2.5 X molar excess): 2.9
- S/B (lamin A; 5.0 X molar excess): 4.9
- S/B (lamin A; 7.5 X molar excess): 6.0
- S/B (lamin A; 10 X molar excess): 4.9
- S/B (lamin A; 15 X molar excess): 4.6
- Mean Total Intensity (Average) (lamin A; GAM conjugate 4 μg/ml, 2.5 X molar excess): 17366
- Mean Total Intensity (Average) (lamin A; GAM conjugate 4 μg/ml, 5.0 X molar excess): 32820
- Mean Total Intensity (Average) (lamin A; GAM conjugate 4 μg/ml, 7.5 X molar excess): 42876
- Mean Total Intensity (Average) (lamin A; GAM conjugate 4 μg/ml, 10 X molar excess): 47756
- Mean Total Intensity (Average) (lamin A; GAM conjugate 4 μg/ml, 15 X molar excess): 49060
- non-specific binding / specificity (in words) (lamin A; GAM conjugates): a minimal amount of non-specific binding; also recorded: little non-specific binding
- Mean Total Intensity, Negative control (lamin A; 2.5 X): 5966
- Mean Total Intensity, Negative control (lamin A; 5.0 X): 6643
- Mean Total Intensity, Negative control (lamin A; 7.5 X): 7100
- Mean Total Intensity, Negative control (lamin A; 10 X): 9690
- Mean Total Intensity, Negative control (lamin A; 15 X): 10779
- S/B (lamin A; repeat experiment, 2.5 X): 9.8
- Mean Total Intensity (Average) (lamin A; repeat experiment, 2.5 X molar excess): 118440
- S/B (lamin A; repeat experiment, 5 X): 19.4
- Mean Total Intensity (Average) (lamin A; repeat experiment, 5 X molar excess): 183078
- S/B (lamin A; repeat experiment, 10X): 29.9
- Mean Total Intensity (Average) (lamin A; repeat experiment, 10X molar excess): 391473
- S/B (lamin A; repeat experiment, 15 X): 12.2
- Mean Total Intensity (Average) (lamin A; repeat experiment, 15 X molar excess): 211270
- Mean Total Intensity, Negative control (lamin A; repeat experiment, 2.5 X): 12053
- Mean Total Intensity, Negative control (lamin A; repeat experiment, 5 X): 9441
- Mean Total Intensity, Negative control (lamin A; repeat experiment, 10X): 13094
- Mean Total Intensity, Negative control (lamin A; repeat experiment, 15 X): 17260
- Ex vivo analysis of the vital organs (in words) (CEA): presence of dye predominantly in the liver with some signal detected in the spleen intestines and lungs
- post-experiment surgical exposure (in words) (CEA): accumulation of dye in the liver, bladder, and a region of inflammation in the subcutaneous tissue

Compound: COCCOCCOCCOCC[N+]1=C(/C=C/C=C/C=C2/N(CCOCCOCCOCCOCCC(=O)ON3C(=O)CCC3=O)c3ccc4c(S(=O)(=O)[O-])cc(S(=O)(=O)O)cc4c3C2(C)CCOCCOCCOCCOC)C(C)(CCOCCOCCOCCOC)c2c1ccc1c(S(=O)(=O)O)cc(S(=O)(=O)O)cc21 (stereo not drawn) [V08-15173 NHS]
- Em (nm) [1, 4]: 706 nm
- Ex (nm) [1, 4]: 684 nm
- ε (M^−1cm^−1) (theoretical) ([1]; theoretical): 180,000 M^−1cm^−1

Compound: Alexa 680-PDI
- % Free Dye [2]: 9%

Compound: Alexa 680-cytochrome C
- % Free Dye [2]: 3%

Compound: CF 680-cytochrome C
- % Free Dye [2]: 17%

Compound: CF 680R-cytochrome C
- % Free Dye [2]: 5%
